Measured values from US20220062291A1, “COMPOSITIONS AND METHODS OF TREATING CANCERS BY ADMINISTERING A PHENOTHIAZINE-RELATED DRUG THAT ACTIVATES PROTEIN PHOSPHATASE 2A (PP2A) WITH REDUCED INHIBITORY ACTIVITY TARGETED TO THE DOPAMINE D2 RECEPTOR AND ACCOMPANYING TOXICITY” (DANA-FARBER CANCER INSTITUTE, INC., priority 2018, published 2022).

How the values were obtained:
[1] = molecular target: T1, PP2A (purified PPP2R1A, PPP2CA and PPP2R5E subunits) (Homo sapiens, UniProt P30153+P67775+Q16537); test: PP2A Immunoprecipitation Phosphatase Assay with purified subunits; format: biochemical
T1 construct: made in house; host or cells: Hi5 insect cells (baculovirus, pAC8 vectors; virus produced in Sf9)
T1 sequence (P30153 whole entry): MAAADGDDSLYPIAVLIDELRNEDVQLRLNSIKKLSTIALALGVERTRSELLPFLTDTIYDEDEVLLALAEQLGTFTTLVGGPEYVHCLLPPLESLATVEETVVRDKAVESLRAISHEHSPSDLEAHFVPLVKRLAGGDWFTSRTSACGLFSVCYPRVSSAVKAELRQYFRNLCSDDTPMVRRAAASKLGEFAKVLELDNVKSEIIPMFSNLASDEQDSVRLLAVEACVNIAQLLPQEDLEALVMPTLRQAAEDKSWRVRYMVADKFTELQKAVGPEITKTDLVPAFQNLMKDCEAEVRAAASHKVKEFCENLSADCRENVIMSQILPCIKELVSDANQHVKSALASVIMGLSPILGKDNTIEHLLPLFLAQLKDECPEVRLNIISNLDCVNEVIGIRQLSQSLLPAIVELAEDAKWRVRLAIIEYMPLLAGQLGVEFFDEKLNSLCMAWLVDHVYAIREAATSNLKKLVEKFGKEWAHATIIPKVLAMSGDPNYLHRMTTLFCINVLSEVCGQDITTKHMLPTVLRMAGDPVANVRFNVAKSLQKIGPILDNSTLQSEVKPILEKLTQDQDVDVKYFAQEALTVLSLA
T1 sequence (P67775 whole entry): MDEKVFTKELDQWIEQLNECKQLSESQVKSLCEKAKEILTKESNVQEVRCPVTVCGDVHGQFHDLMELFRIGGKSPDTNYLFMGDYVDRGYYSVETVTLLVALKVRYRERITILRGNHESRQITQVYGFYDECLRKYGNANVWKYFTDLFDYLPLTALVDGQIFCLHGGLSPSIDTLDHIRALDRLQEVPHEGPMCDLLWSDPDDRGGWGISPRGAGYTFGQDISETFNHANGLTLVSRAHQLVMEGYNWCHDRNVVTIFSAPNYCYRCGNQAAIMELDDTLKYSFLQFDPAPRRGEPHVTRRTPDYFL
T1 sequence (Q16537 whole entry): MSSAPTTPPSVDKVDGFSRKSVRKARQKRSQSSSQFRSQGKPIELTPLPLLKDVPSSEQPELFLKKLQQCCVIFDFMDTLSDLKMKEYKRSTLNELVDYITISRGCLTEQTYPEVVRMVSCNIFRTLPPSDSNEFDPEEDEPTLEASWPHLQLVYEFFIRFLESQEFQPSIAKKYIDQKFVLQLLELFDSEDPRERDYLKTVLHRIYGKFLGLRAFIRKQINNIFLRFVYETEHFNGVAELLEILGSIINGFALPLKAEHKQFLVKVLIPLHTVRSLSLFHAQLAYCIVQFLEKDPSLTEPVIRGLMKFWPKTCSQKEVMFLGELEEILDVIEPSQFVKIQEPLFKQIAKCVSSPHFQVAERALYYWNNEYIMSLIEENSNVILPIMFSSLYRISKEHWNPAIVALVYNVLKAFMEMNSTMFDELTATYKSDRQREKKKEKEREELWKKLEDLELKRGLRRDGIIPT
Procedure: The data is presented as mean±s.d. (n=3, biological replicates). *P<0.05 by student's t-test.
Phosphatase activity of PP2A was measured using the PP2A Immunoprecipitation Phosphatase Assay Kit (Merck Millipore®) (FIG. 21A-FIG. 21B). […] The proteins were subsequently incubated with protein A agarose slurry and 4 μg of anti-PPP2CA antibody (Merck Millipore®, #05-421, clone 1D6) at 4° C. with constant rocking for one hour. Agarose-bound immune complexes were collected, then washed with 700 μl TBS (3 times) and 500 μl Ser/Thr buffer (final wash), before resuspending them in 20 μl Ser/Thr buffer. A phosphopeptide (amino acid sequence: K-R-pT-I-R-R) was added as a substrate for PPP2CA, and samples were incubated at 30° C. in a shaking incubator for 10 minutes. Supernatants (25 μl) were then transferred onto 96-well plate, and released phosphate was measured by adding 100 μl malachite green phosphate detection solution. Absorbance was read by SpectraMax® M5 Multi-Mode Microplate Reader (Molecular Devices LLC) at 650 nm. Phosphate concentrations were calculated from a standard curve generated from serial dilutions of standard phosphate solution (0-2,000 pmol).

[2] = tested on: α and β tubulins in KOPT-K1 cell lysates; test: Cellular thermal shift assay (CETSA), tubulins; format: binding, human
Procedure: Data are presented as means±s.d. (n=3, biological replicates). The quantitation of levels α and β tubulins detected by specific antibodies was determined using western blotting (FIG. 19E). Alpha (α) and tubulin levels were quantified during CETSA by Image J software of KOPT-K1 cell lysates treated or untreated with iPAP1 at various temperatures for 3 minutes. […] The CETSA curves for KOPT-K1 cell lysates with and without the addition of iPAP1 after incubation for 3 minutes are shown in FIG. 19F and FIG. 19G. […] Data are presented as means±s.d. (n=3, biological replicates). The quantitation of levels α and β tubulins detected by specific antibodies using western blotting (FIG. 19H). α and β tubulin levels were quantified during CETSA by Image J software of KOPT-K1 cell lysates treated or untreated with iPAP1 at various temperature for 3 minutes.

[3] = tested on: T-ALL cells isolated from Tg(rag2:Myc; rag2:EGFP) zebrafish; test: Zebrafish embryos transplanted with T-ALL cells, GFP-positive leukemic area; format: in vivo
Text: (n=10) N.S.; not significant, **P<0.01 and ****P<0.0001 by two-tailed Welch's t-test.

[4] = tested on: MYBL2 Ser241 in KOPT-K1 cells; test: Phosphoproteomics analysis; format: cell-based, human; conditions: 3 hours
Procedure: To evaluate phosphopeptides in KOPT-K1 cells by phosphoproteomics analysis, cells were treated with PPZ at 10 μM or iPAP1 at 1 μM for 3 hours.

KOPT-K1 cells [5] = test: Cell cycle status by PI flow cytometry; format: cell-based, human; conditions: 24 hours
Procedure: Relative DNA content of cells in each of the samples was determined by measuring PI (propidium iodide) staining using flow cytometry. The results are illustrated in FIG. 31A-FIG. 31B.
Relative DNA content of cells in each of the samples was determined as described above.

[6] = molecular target: T2, PP2A subunits in KOPT-K1 cell lysates (Homo sapiens, UniProt P30153+P67775+Q16537); test: Cellular thermal shift assay (CETSA), PP2A subunits; format: binding; conditions: PPZ at 10 μM, one hour
T2 construct: are endogenously expressed by KOPTK1 cells; endogenous in cells; host or cells: KOPT-K1 T-ALL cells / lysates
T2 sequence (P30153 whole entry): as the sequence (P30153 whole entry) above
T2 sequence (P67775 whole entry): as the sequence (P67775 whole entry) above
T2 sequence (Q16537 whole entry): as the sequence (Q16537 whole entry) above
Text: The cell lysates were then ultra-centrifuged to precipitate the aggregated pool of the protein, followed by quantification of the remaining soluble protein fraction by immunoblotting with antibodies specific to each of the PP2A subunits.
A similar experiment was set up to examine target engagement specificity of iPAP1 to PP2A subunits in KOPT-K1 cells (FIG. 18G-FIG. 18L). […] A western blot of the KOPT-K1 cell lysates is illustrated in FIG. 19B.

KOPT-K1 cells [7] = test: Survival of NSG mice xenotransplanted with KOPT-K1 cells; format: in vivo, NSG (NOD/Scid/IL2Rγnull) mice; conditions: 2.5 mg/kg/day, oral, from day 10
Text: At day one, 1×10^6 KOPT-K1 cells were intravenously injected into each mouse via its tail veins.

| SMILES | phosphatase activity of PP2A assembled from purified PPP2R1A, PPP2CA and PPP2R5E ([1]; one hour at room temperature) | protection of α or β tubulins from thermal degradation [2] | activity against T-ALL (GFP signal) ([3]; 5 μM, five days) | phosphorylation of MYBL2 ([4]; 10 μM) | cell cycle status (KOPT-K1 cells [5]; 10 μM and 20 μM) | thermal stabilization of PP2A subunits [6] | overall survival (KOPT-K1 cells [7]) | PP2A activated at lower molar concentrations than PPZ ([1]; purified subunits) | equivalent PP2A activation activity at lower concentrations compared to PPZ ([1]; purified subunits 200 ng each, one hour at room temperature) | reduction of the GFP signal more than PPZ ([3]; 2 μM iPAP1 vs 5 μM PPZ, five days) | GFP-positive leukemic area ([3]; serial dosage) | phosphorylation of MYBL2 ([4]; 1 μM) | cell cycle status (KOPT-K1 cells [5]; 1 μM and 2 μM) |
| --- | --- | --- | --- | --- | --- | --- | --- | --- | --- | --- | --- | --- | --- |
| OCCN1CCN(CCCN2c3ccccc3Sc3ccc(Cl)cc32)CC1 [PPZ, perphenazine, reference compound] | Phosphatase activity increased with increasing concentrations of PPZ | did not protect α or β tubulins from thermal degradation | some activity against T-ALL with reduced GFP signal | completely dephosphorylated at Ser241 | induced significant G2/M phase arrest | significantly enhanced stabilization of PPP2R1A, PPP2CA and PPP2R5E | did not show any survival advantage over the control | – | – | – | – | – | – |
| COc1ccc(C(=O)N2c3ccccc3Sc3ccc(Cl)cc32)cc1 [iPAP1] | the phosphatase activity of PP2A was increased upon iPAP1 treatment | did not protect α or β tubulins from thermal degradation | – | – | – | protection of the PP2A subunits from thermal degradation similar to PPZ | significantly extended the overall survival period | ~10 fold | ~10 times | at least 5 fold | dose dependent increased T-ALL cell killing | completely dephosphorylated at Ser241 | induced significant G2/M phase arrest |
